According to ChEMBL document CHEMBL4431352, “Structure-activity relationship of Garcinia xanthones analogues: Potent Hsp90 inhibitors with cytotoxicity and antiangiogenesis activity” (Bioorg Med Chem, 2016):
Blank lines part the entries; values can stand above or below the compound they belong to. Calls of active or inactive are those of the source. The calls are words filed in the database; no cut-off is given here.

Legend:
[1] = molecular target: T1, Heat shock protein HSP 90-alpha (Homo sapiens, UniProt P07900); assay: Inhibition of 6x-His tagged human recombinant full length Hsp90alpha ATPase preincubated for 0.5 hrs followed by ATP addition measured after 30 mins by HTRF assay
[2] = molecular target: T2, Heat shock protein HSP90 (Homo sapiens) (UniProt P07900+P08238); assay: Inhibition of Hsp90 in HUVEC assessed as repression of 1% hypoxia-induced Glut1 mRNA expression at 0.1 uM measured over 8 hrs by RT-PCR analysis; format: cell-based
[3] = molecular target: T2, Heat shock protein HSP90 (Homo sapiens); assay: Inhibition of Hsp90 in human SK-BR-3 cells assessed as downregulation of Akt after 24 hrs by Western blot analysis; format: cell-based
SK-BR-3 [4] = assay: Induction of apoptosis in human SK-BR-3 cells after 48 hrs by annexin V/PI-staining based flow cytometry; format: functional, cell-based
SK-BR-3 [5] = assay: Induction of apoptosis in human SK-BR-3 cells assessed as nuclear condensation at 0.25 to 1 uM after 48 hrs by DAPI staining-based fluorescence analysis; format: functional, cell-based
SK-BR-3 [6] = assay: Induction of apoptosis in human SK-BR-3 cells assessed as increase in caspase activity after 48 hrs by fluorimetric assay; format: functional, cell-based
A549 = assay: Antiproliferative activity against human A549 cells assessed as growth inhibition by MTT assay; format: functional, cell-based
[7] = molecular target: T2, Heat shock protein HSP90 (Homo sapiens); assay: Inhibition of Hsp90 in human SK-BR-3 cells assessed as downregulation of ERK1/2 after 24 hrs by Western blot analysis; format: cell-based
HUVEC [8] = assay: Antiangiogenic activity against inactivated HUVEC assessed as inhibition of tube formation at 0.25 uM incubated for 6 hrs by matrigel assay; format: functional, cell-based; settings: Homo sapiens
SK-BR-3 [9] = assay: Induction of apoptosis in human SK-BR-3 cells assessed as live cells after 48 hrs by annexin v/PI-staining based flow cytometry (reference value: 89.2%); format: functional, cell-based
PC-3 = assay: Antiproliferative activity against human PC3 cells assessed as growth inhibition by MTT assay; format: functional, cell-based
MCF7 = assay: Antiproliferative activity against human MCF7 cells assessed as growth inhibition by MTT assay; format: functional, cell-based
[10] = molecular target: T1, Heat shock protein HSP 90-alpha; assay: Binding affinity to human recombinant full length Hsp90alpha assessed as change in melting temperature at 250 uM by fluorescence assay
SK-BR-3 [11] = assay: Induction of apoptosis in human SK-BR-3 cells assessed as apoptotic body formation at 0.25 to 1 uM after 48 hrs by DAPI staining-based fluorescence analysis; format: functional, cell-based
[12] = molecular target: T2, Heat shock protein HSP90 (Homo sapiens); assay: Inhibition of Hsp90 in human SK-BR-3 cells assessed as upregulation of Hsp70 at 0.02 to 0.2 uM after 24 hrs by Western blot analysis; format: cell-based
[13] = molecular target: T2, Heat shock protein HSP90 (Homo sapiens); assay: Inhibition of Hsp90 in HUVEC assessed as repression of 1% hypoxia-induced VEGF mRNA expression at 0.1 uM measured over 8 hrs by RT-PCR analysis; format: cell-based
SK-BR-3 [14] = assay: Antiproliferative activity against human SK-BR-3 cells assessed as growth inhibition by MTT assay; format: functional, cell-based
SK-BR-3 [15] = assay: Induction of apoptosis in human SK-BR-3 cells assessed as late apoptotic cells at 0.5 uM after 48 hrs by annexin v/PI-staining based flow cytometry (reference value: 6.2%); format: functional
SK-BR-3 [16] = assay: Induction of apoptosis in human SK-BR-3 cells assessed as late apoptotic cells at 1 uM after 48 hrs by annexin v/PI-staining based flow cytometry (reference value: 6.2%); format: functional
SK-BR-3 [17] = assay: Induction of apoptosis in human SK-BR-3 cells assessed as dead cells at 0.5 uM after 48 hrs by annexin v/PI-staining based flow cytometry (Rvb =1.3%); format: functional
HepG2 = assay: Antiproliferative activity against human HepG2 cells assessed as growth inhibition by MTT assay; format: functional, cell-based
SK-BR-3 [18] = assay: Induction of apoptosis in human SK-BR-3 cells assessed as dead cells at 0.25 uM after 48 hrs by annexin v/PI-staining based flow cytometry (Rvb =1.3%); format: functional
HT-29 = assay: Antiproliferative activity against human HT-29 cells assessed as growth inhibition by MTT assay; format: functional, cell-based
SK-BR-3 [19] = assay: Induction of apoptosis in human SK-BR-3 cells assessed as early apoptotic cells at 1 uM after 48 hrs by annexin v/PI-staining based flow cytometry (reference value: 3.3%); format: functional
[20] = molecular target: T1, Heat shock protein HSP 90-alpha; assay: Binding affinity to human recombinant full length Hsp90alpha assessed as change in melting temperature at 500 uM by fluorescence assay
SK-BR-3 [21] = assay: Induction of cell morphological changes in human SK-BR-3 cells assessed as cell shrinkage at 0.25 to 1 uM after 48 hrs by DAPI staining-based fluorescence analysis; format: functional
SK-BR-3 [22] = assay: Induction of apoptosis in human SK-BR-3 cells assessed as late apoptotic cells after 48 hrs by annexin v/PI-staining based flow cytometry (reference value: 6.2%); format: functional, cell-based
SK-BR-3 [23] = assay: Induction of apoptosis in human SK-BR-3 cells assessed as live cells at 1 uM after 48 hrs by annexin v/PI-staining based flow cytometry (reference value: 89.2%); format: functional
SK-BR-3 [24] = assay: Induction of apoptosis in human SK-BR-3 cells assessed as early apoptotic cells at 0.5 uM after 48 hrs by annexin v/PI-staining based flow cytometry (reference value: 3.3%); format: functional
SK-BR-3 [25] = assay: Induction of cell morphological changes in human SK-BR-3 cells assessed as cell distortion at 0.25 to 1 uM after 48 hrs by DAPI staining-based fluorescence analysis; format: functional
HUVEC [26] = assay: Antiangiogenic activity against HUVEC assessed as inhibition of VEGF-induced cell migration incubated for 24 hrs by wound healing assay; format: functional, cell-based; settings: Homo sapiens
SK-BR-3 [27] = assay: Induction of apoptosis in human SK-BR-3 cells assessed as live cells at 0.5 uM after 48 hrs by annexin v/PI-staining based flow cytometry (reference value: 89.2%); format: functional
SK-BR-3 [28] = assay: Induction of apoptosis in human SK-BR-3 cells assessed as late apoptotic cells at 0.25 uM after 48 hrs by annexin v/PI-staining based flow cytometry (reference value: 6.2%); format: functional
[29] = molecular target: T2, Heat shock protein HSP90 (Homo sapiens); assay: Inhibition of Hsp90 in HUVEC assessed as downregulation of 1% hypoxia-induced HIF-1alpha expression measured over 8 hrs by Western blot analysis; format: cell-based
SK-BR-3 [30] = assay: Induction of apoptosis in human SK-BR-3 cells assessed as dead cells at 1 uM after 48 hrs by annexin v/PI-staining based flow cytometry (Rvb =1.3%); format: functional
SK-BR-3 [31] = assay: Induction of cell morphological changes in human SK-BR-3 cells assessed as cell membrane blebbing at 0.25 to 1 uM after 48 hrs by DAPI staining-based fluorescence analysis; format: functional
[32] = molecular target: T1, Heat shock protein HSP 90-alpha; assay: Binding affinity to human recombinant full length Hsp90alpha assessed as change in melting temperature at 125 uM by fluorescence assay
SK-BR-3 [33] = assay: Induction of apoptosis in human SK-BR-3 cells assessed as early apoptotic cells at 0.25 uM after 48 hrs by annexin v/PI-staining based flow cytometry (reference value: 3.3%); format: functional
[34] = molecular target: T2, Heat shock protein HSP90 (Homo sapiens); assay: Inhibition of Hsp90 in HUVEC assessed as repression of 1% hypoxia-induced […] mRNA expression at 0.1 uM measured over 8 hrs by RT-PCR analysis; format: cell-based
SK-BR-3 [35] = assay: Induction of apoptosis in human SK-BR-3 cells assessed as live cells at 0.25 uM after 48 hrs by annexin v/PI-staining based flow cytometry (reference value: 89.2%); format: functional
[36] = molecular target: T1, Heat shock protein HSP 90-alpha; assay: Binding affinity to human recombinant full length Hsp90alpha assessed as change in melting temperature at 1 mM by fluorescence assay
SK-BR-3 [37] = assay: Induction of apoptosis in human SK-BR-3 cells assessed as dead cells after 48 hrs by annexin v/PI-staining based flow cytometry (Rvb =1.3%); format: functional, cell-based
[38] = molecular target: T1, Heat shock protein HSP 90-alpha; assay: Binding affinity to human recombinant full length biotinylated Hsp90alpha assessed as equilibrium dissociation constants by biolayer interferometric analysis
SK-BR-3 [39] = assay: Induction of apoptosis in human SK-BR-3 cells assessed as early apoptotic cells after 48 hrs by annexin v/PI-staining based flow cytometry (reference value: 3.3%); format: functional, cell-based

IC50 [1]: 28 µM
SMILES: C=CCC12OCC3CC(C=C4C(=O)c5ccccc5OC431)C2=O (stereo not given)

IC50 [1]: 15.5 µM
SMILES: CC(C)=CCC12OC(C)(C)C3CC(C=C4C(=O)c5c(O)cccc5OC431)C2=O (stereo not given)

IC50 [1]: 67.1 µM
SMILES: CC(C)=CCC12OC(C)(C)C3CC(C=C4C(=O)c5c(cccc5OS(C)(=O)=O)OC431)C2=O (stereo not given)

IC50 [1]: 35.2 µM
SMILES: CC(C)=CCC12OCC3CC(C=C4C(=O)c5ccccc5OC431)C2=O (stereo not given)

IC50 [1]: 36.6 µM
SMILES: C/C(=C\CC12OCC3CC(C1=O)C1OC14C(=O)c1c(O)cccc1OC324)CC=O (stereo not given)

IC50 [1]: 43 µM
SMILES: C/C(=C\CC12OCC3CC(C1=O)C1OC14C(=O)c1c(O)cccc1OC324)CC(=O)O (stereo not given)

SMILES: C/C(=C\CC12OCC3CC(C=C4C(=O)c5c(O)cccc5OC431)C2=O)CO (stereo not given)
inhibition [2]: Active
inhibition [3]: Dose-dependent effect
Activity (SK-BR-3 [4]): Dose-dependent effect
Activity (SK-BR-3 [5]): Active
Activity (SK-BR-3 [6]): Dose-dependent effect
IC50 (A549): 3.25 µM
inhibition [7]: Dose-dependent effect
inhibition (HUVEC [8]): Active
Activity (SK-BR-3 [9]): Dose-dependent effect
IC50 (PC-3): 2.16 µM
IC50 (MCF7): 2.89 µM
ΔTm [10]: 1.64 °C
Activity (SK-BR-3 [11]): Active
inhibition [12]: inactive
inhibition [13]: Active
IC50 (SK-BR-3 [14]): 1.92 µM
Activity (SK-BR-3 [15]): 21.45%
Activity (SK-BR-3 [16]): 35.7%
Activity (SK-BR-3 [17]): 2.35%
IC50 (HepG2): 3.34 µM
Activity (SK-BR-3 [18]): 0.95%
IC50 (HT-29): 3.02 µM
IC50 [1]: 3.68 µM
Activity (SK-BR-3 [19]): 8.6%
ΔTm [20]: 2.12 °C
Activity (SK-BR-3 [21]): Active
Activity (SK-BR-3 [22]): Dose-dependent effect
Activity (SK-BR-3 [23]): 50%
Activity (SK-BR-3 [24]): 16.65%
Activity (SK-BR-3 [25]): Active
Activity (HUVEC [26]): Dose-dependent effect
Activity (SK-BR-3 [27]): 59.58%
Activity (SK-BR-3 [28]): 13.4%
inhibition [29]: Dose-dependent effect
Activity (SK-BR-3 [30]): 5.7%
Activity (SK-BR-3 [31]): Active
ΔTm [32]: 0.95 °C
Activity (SK-BR-3 [33]): 7.5%
inhibition [34]: Active
Activity (SK-BR-3 [35]): 78.15%
ΔTm [36]: 4.7 °C
Activity (SK-BR-3 [37]): Dose-dependent effect
Kd [38]: 38 µM
Activity (SK-BR-3 [39]): Dose-dependent effect

IC50 [1]: 89.8 µM
SMILES: CCOC(=O)COc1cccc2c1C(=O)C1=CC3CC4C(C)(C)OC(CC=C(C)C)(C3=O)C14O2 (stereo not given)

IC50 [1]: > 100 µM
SMILES: CC(C)=CCC12OC(C)(C)C3CC(C=C4C(=O)c5c(OCC(=O)O)cccc5OC431)C2=O (stereo not given)

SMILES: CC(C)=CCC[C@]1(C)C=Cc2c(O)c3c(c(CC=C(C)C)c2O1)O[C@]12C(=C[C@@H]4C[C@H]1C(C)(C)O[C@@]2(C/C=C(/C)C(=O)O)C4=O)C3=O [GAMBOGIC ACID]
IC50 (A549): 1.2 µM
IC50 (PC-3): 1.19 µM
IC50 (MCF7): 1.25 µM
IC50 (SK-BR-3 [14]): 0.89 µM
IC50 (HepG2): 2.19 µM
IC50 (HT-29): 2.37 µM
IC50 [1]: 22 µM

SMILES: CC(C)=CCC12OC(C)(C)C3CC(C=C4C(=O)c5ccccc5OC431)C2=O (stereo not given)
IC50 [1]: 23.9 µM
